Reference: patent US10214508B2, “Nitrogen-containing heterocyclic compound” (Takeda Pharmaceutical Company Limited, priority 2014, dated 2019)

These compounds were tested against T1, human M1 receptor (hCHRM1) (Homo sapiens, UniProt P11229) (assay: Measurement of M1 receptor positive allosteric modulator (M1PAM) activity, calcium fluorescence (FLIPRtetra)). Details: 10 μM test compound with acetylcholine at EC20 (final 0.6-0.8 nM); 100% = acetylcholine 1 μM, 0% = DMSO; CHO-K1 cells expressing hCHRM1.
T1 construct: expressed in transfected cells
T1 sequence (P11229 1-460): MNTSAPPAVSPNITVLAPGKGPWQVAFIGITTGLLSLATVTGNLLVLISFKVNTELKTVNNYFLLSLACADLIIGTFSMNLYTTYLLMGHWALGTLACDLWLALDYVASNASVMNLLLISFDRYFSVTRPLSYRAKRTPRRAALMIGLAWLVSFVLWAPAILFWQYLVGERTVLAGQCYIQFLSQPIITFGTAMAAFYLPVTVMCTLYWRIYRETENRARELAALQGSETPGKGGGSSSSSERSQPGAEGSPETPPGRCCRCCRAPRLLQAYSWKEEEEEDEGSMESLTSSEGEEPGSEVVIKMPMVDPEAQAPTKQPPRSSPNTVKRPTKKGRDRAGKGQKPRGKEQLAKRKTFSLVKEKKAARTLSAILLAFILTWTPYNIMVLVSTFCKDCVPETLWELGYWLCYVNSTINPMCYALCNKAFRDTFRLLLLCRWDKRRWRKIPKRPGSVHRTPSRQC
Assay type: cell-based
Description: Measurement of M1 Receptor Positive Allosteric Modulator (M1PAM) Activity
The activity of a test compound in the presence of acetylcholine at EC20 concentration (final concentration 0.6-0.8 nM), which affords an action corresponding to about 20% of the maximum activity, was measured as PAM activity. The method is as follows. CHO-K1 cells stably expressing a human M1 receptor (hCHRM1) were plated on a 384-well black clear bottom plate (BD Falcon) at 5,000 cells/well, and cultured in an incubator at 37° C., 5% CO2 for 1 day. The medium in the cell plate was removed, and assay buffer A containing calcium indicator (Recording medium (DOJINDO LABORATORIES), 0.1% BSA (Wako Pure Chemical Industries, Ltd.), 2.5 μg/mL Fluo-4 AM (DOJINDO LABORATORIES), 0.08% Pluronic F127 (DOJINDO LABORATORIES), 1.25 mM probenecid (DOJINDO LABORATORIES)) was added at 30 μL/well. The cells were left standing in the incubator at 37° C., 5% CO2 for 30 min, and further left standing at room temperature for 30 min. A test compound prepared by diluting with assay buffer B (HBSS (Invitrogen), 20 mM HEPES (Invitrogen), 0.1% BSA) containing 2.4-3.2 nM acetylcholine was added at 10 μL/well, and the fluorescence was measured by FLIPRtetra (Molecular Devices) for 1 min every for 1 second. With the definition that the amount of change in the fluorescence on addition of acetylcholine (final concentration 1 μM) is 100% and that on addition of DMSO instead of a test compound is 0%, the activity (%) of the test compound was calculated, and the inflection point in the concentration-dependent curve of the test compound was calculated as IP values.

| SMILES | activity (%) at 10 μM [%] |
| --- | --- |
| Cc1nc(C(=O)N[C@H]2CCCC[C@@H]2O)cc(Cc2ccc(C#N)cc2)c1Cl [Example 66, 5-chloro-4-(4-cyanobenzyl)-N-((1S,2S)-2-hydroxycyclohexyl)-6-methylpyridine-2-carboxamide] | 105 |
| COc1cc(Cc2ccc(-n3cccn3)cc2)cc(C(=O)N[C@H]2CCC[C@@H]2O)n1 [Example 68, N-((1S,2S)-2-hydroxycyclopentyl)-6-methoxy-4-(4-(1H-pyrazol-1-yl)benzyl)pyridine-2-carboxamide] | 96 |
| COc1cc(Cc2ccc(-n3cccn3)cc2)cc(C(=O)N[C@H]2CCCC[C@@H]2O)n1 [Example 69, N-((1S,2S)-2-hydroxycyclohexyl)-6-methoxy-4-(4-(1H-pyrazol-1-yl)benzyl)pyridine-2-carboxamide] | 100 |
| Cc1cc(Cc2ccc(-n3cccn3)cc2)cc(C(=O)N[C@H]2CCCC[C@@H]2O)n1 [Example 70, N-((1S,2S)-2-hydroxycyclohexyl)-6-methyl-4-(4-(1H-pyrazol-1-yl)benzyl)pyridine-2-carboxamide] | 87 |
| COc1ccc(Cc2cc(C)nc(C(=O)N[C@H]3CCCC[C@@H]3O)c2)cc1 [Example 71, N-((1S,2S)-2-hydroxycyclohexyl)-4-(4-methoxybenzyl)-6-methylpyridine-2-carboxamide] | 69 |
| Cc1nc(C(=O)N[C@H]2CCCC[C@@H]2O)cc(Cc2ccc(Cl)nc2)c1C [Example 73, 4-((6-chloropyridin-3-yl)methyl)-N-((1S,2S)-2-hydroxycyclohexyl)-5,6-dimethylpyridine-2-carboxamide] | 94 |
| Cc1nc(C(=O)N[C@H]2CCC[C@@H]2O)cc(Cc2ccc(-n3cccn3)cc2)c1C [Example 75, N-((1S,2S)-2-hydroxycyclopentyl)-5,6-dimethyl-4-(4-(1H-pyrazol-1-yl)benzyl)pyridine-2-carboxamide] | 102 |
| Cc1nc(C(=O)N[C@H]2CCCC[C@@H]2O)cc(Cc2ccc(-n3cccn3)cc2)c1C [Example 76, N-((1S,2S)-2-hydroxycyclohexyl)-5,6-dimethyl-4-(4-(1H-pyrazol-1-yl)benzyl)pyridine-2-carboxamide] | 92 |
| Cc1nc(C(=O)N[C@H]2CCCC[C@@H]2O)cc(Cc2ccc(Br)cc2)c1C [Example 77, 4-(4-bromobenzyl)-N-((1S,2S)-2-hydroxycyclohexyl)-5,6-dimethylpyridine-2-carboxamide] | 100 |
| Cc1nc(C(=O)N[C@H]2COCC[C@@H]2O)cc(Cc2ccc(-n3cccn3)cc2)c1C [Example 78, 1,5-anhydro-2,4-dideoxy-2-(((5,6-dimethyl-4-(4-(1H-pyrazol-1-yl)benzyl)pyridin-2-yl)carbonyl)amino)-L-threo-pentitol] | 104 |
| Cc1nc(C(=O)N[C@H]2COCC[C@@H]2O)cc(Cc2ccc(-c3ccn(C)n3)cc2)c1C [Example 82, 1,5-anhydro-2,4-dideoxy-2-(((5,6-dimethyl-4-(4-(1-methyl-1H-pyrazol-3-yl)benzyl)pyridin-2-yl)carbonyl)amino)-L-threo-pentitol] | 103 |
| COc1ccc(Cc2cc(C(=O)N[C@H]3COCC[C@@H]3O)nc(C)c2C)cc1 [Example 83, 1,5-anhydro-2,4-dideoxy-2-(((4-(4-methoxybenzyl)-5,6-dimethylpyridin-2-yl)carbonyl)amino)-L-threo-pentitol] | 103 |
| Cc1ccc(Cc2cc(C(=O)N[C@H]3CCCC[C@@H]3O)nc(C)c2C)cn1 [Example 84, N-((1S,2S)-2-hydroxycyclohexyl)-5,6-dimethyl-4-((6-methylpyridin-3-yl)methyl)pyridine-2-carboxamide] | 93 |
| Cc1nc(C(=O)N[C@H]2COCC[C@@H]2O)cc(Cc2ccc(Cl)nc2)c1C [Example 85, 1,5-anhydro-2-(((4-((6-chloropyridin-3-yl)methyl)-5,6-dimethylpyridin-2-yl)carbonyl)amino)-2,4-dideoxy-L-threo-pentitol] | 99 |
| Cc1nc(C(=O)N[C@H]2COCC[C@@H]2O)cc(Cc2ccc(-c3ccn(C)n3)nc2)c1C [Example 86, 1,5-anhydro-2,4-dideoxy-2-(((5,6-dimethyl-4-((6-(1-methyl-1H-pyrazol-3-yl)pyridin-3-yl)methyl)pyridin-2-yl)carbonyl)amino)-L-threo-pentitol] | 95 |
| COc1nc(C(=O)N[C@H]2COCC[C@@H]2O)cc(Cc2ccc(-c3ccn(C)n3)cc2)c1C [Example 87, 1,5-anhydro-2,4-dideoxy-2-(((6-methoxy-5-methyl-4-(4-(1-methyl-1H-pyrazol-3-yl)benzyl)pyridin-2-yl)carbonyl)amino)-L-threo-pentitol] | 92 |

Other lines, results leading:

| activity (%) at 10 μM [%] | SMILES |
| --- | --- |
| 90 | COc1cnc(C(=O)N[C@H]2CCCC[C@@H]2O)cc1Cc1ccc(-c2cnn(C)c2)nc1 [Example 59, N-((1S,2S)-2-hydroxycyclohexyl)-5-methoxy-4-((6-(1-methyl-1H-pyrazol-4-yl)pyridin-3-yl)methyl)pyridine-2-carboxamide] |
| 87 | COc1cnc(C(=O)N[C@H]2CCC[C@@H]2O)cc1Cc1ccc(-n2cccn2)cc1 [Example 60, N-((1S,2S)-2-hydroxycyclopentyl)-5-methoxy-4-(4-(1H-pyrazol-1-yl)benzyl)pyridine-2-carboxamide] |
| 108 | COc1cnc(C(=O)N[C@H]2CCCC[C@@H]2O)cc1Cc1ccc(Cl)nc1 [Example 61, 4-((6-chloropyridin-3-yl)methyl)-N-((1S,2S)-2-hydroxycyclohexyl)-5-methoxypyridine-2-carboxamide] |
| 96 | COc1cnc(C(=O)N[C@H]2CCCC[C@@H]2O)cc1Cc1ccc(Br)cc1 [Example 62, 4-(4-bromobenzyl)-N-((1S,2S)-2-hydroxycyclohexyl)-5-methoxypyridine-2-carboxamide] |
| 94 | COc1cnc(C(=O)N[C@H]2CCCC[C@@H]2O)cc1Cc1ccc(-n2cccn2)cc1 [Example 63, N-((1S,2S)-2-Hydroxycyclohexyl)-5-methoxy-4-(4-(1H-pyrazol-1-yl)benzyl)pyridine-2-carboxamide] |
| 104 | COc1cnc(C(=O)N[C@H]2CCCC[C@@H]2O)cc1Cc1ccc(-c2cnn(C)c2)cc1 [Example 64, N-((1S,2S)-2-hydroxycyclohexyl)-5-methoxy-4-(4-(1-methyl-1H-pyrazol-4-yl)benzyl)pyridine-2-carboxamide] |
| 106 | Cc1nc(C(=O)N[C@H]2CCCC[C@@H]2O)cc(Cc2ccc(-c3ccn(C)n3)cc2)c1Cl [Example 65, 5-chloro-N-((1S,2S)-2-hydroxycyclohexyl)-6-methyl-4-(4-(1-methyl-1H-pyrazol-3-yl)benzyl)pyridine-2-carboxamide] |
| 95 | N#Cc1cnc(C(=O)N[C@H]2CCCC[C@@H]2O)cc1Cc1ccc(-n2cccn2)cc1 [Example 67, 5-cyano-N-((1S,2S)-2-hydroxycyclohexyl)-4-(4-(1H-pyrazol-1-yl)benzyl)pyridine-2-carboxamide] |
| 106 | Cc1nc(C(=O)N[C@H]2CCCC[C@@H]2O)cc(Cc2ccc(-c3cnn(C)c3)cc2)c1C [Example 79, N-((1S,2S)-2-hydroxycyclohexyl)-5,6-dimethyl-4-(4-(1-methyl-1H-pyrazol-4-yl)benzyl)pyridine-2-carboxamide] |
| 84 | Cc1nc(C(=O)N[C@H]2CCCC[C@@H]2O)cc(Cc2ccc(-c3cnn(C)c3)nc2)c1C [Example 80, N-((1S,2S)-2-hydroxycyclohexyl)-5,6-dimethyl-4-((6-(1-methyl-1H-pyrazol-4-yl)pyridin-3-yl)methyl)pyridine-2-carboxamide] |
| 97 | Cc1nc(C(=O)N[C@H]2CCCC[C@@H]2O)cc(Cc2ccc(-c3ccn(C)n3)cc2)c1C [Example 81, N-((1S,2S)-2-hydroxycyclohexyl)-5,6-dimethyl-4-(4-(1-methyl-1H-pyrazol-3-yl)benzyl)pyridine-2-carboxamide] |
